We go through 21 compounds from patent US20230051589A1, “COMPOUNDS AND COMPOSITIONS FOR TREATING CONDITIONS ASSOCIATED WITH NLRP ACTIVITY” (Novartis AG, priority 2018, published 2023).

The subject of the experiment is IL-1β production in PMA-differentiated THP-1 cells. Nature of the experiment: IL-1β production in PMA-differentiated THP-1 cells stimulated with gramicidin (hTHP-1 assay, 2% fetal bovine serum; Procedures 1-3). Type of experiment: cell-based, human. As to conditions: hTHP-1 assay containing 2% fetal bovine serum. Put shortly: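 PMA-primed THP-1 cells (20 ng/ml PMA, 16-18 h) in RPMI with 2% FBS were pre-incubated with compounds for 1 h, from 100 μM downward in 3-fold steps (0.37% DMSO final), then stimulated with 5 μM gramicidin for 2 h. IL-1β in the supernatant was quantified by HTRF.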

Setting [1] is: Table B2, class symbols, read-out: IC50.
Setting [2] is: Table B3, gramicidin stimulation, IL-1β readout, read-out: hTHP-1 IC50.
[3] abbreviates: Homo sapiens, THP-1, Table B3, gramicidin stimulation, IL-1β readout, read-out: hTHP-1 IC50.

Where two headings read alike, the source gives them in different places.

Broadly, the IC50 is the concentration that inhibits the measured activity by half.

As to `CO[C@H]1COc2c(S(N)(=O)=NC(=O)Nc3c4c(cc5c3CCC5)CCC4)cnn2C1` (single isomer, unassigned) [Example 695, (R) or (S)-(6R)-N′-((1,2,3,5,6,7-hexahydro-s-indacen-4-yl)carbamoyl)-6-methoxy-6,7-dihydro-5H-pyrazolo[5,1-b][1,3]oxazine-3-sulfonimidamide], the IC50 under setting [1] is 40 to 200 nM.
As to `CO[C@H]1COc2c(S(N)(=O)=NC(=O)Nc3c4c(cc5c3CCC5)CCC4)cnn2C1` (single isomer, unassigned) [Example 696, (S) or (R)-(6R)-N′-((1,2,3,5,6,7-hexahydro-s-indacen-4-yl)carbamoyl)-6-methoxy-6,7-dihydro-5H-pyrazolo[5,1-b][1,3]oxazine-3-sulfonimidamide], the IC50 under setting [1] lay in the range of 200 to 1000 nM.
Turning to `CN[C@H]1COc2c(S(N)(=O)=NC(=O)Nc3c4c(cc5c3CCC5)CCC4)cnn2C1` (single isomer, unassigned) [Example 697, (R) or (S)-(6R)-N′-((1,2,3,5,6,7-hexahydro-s-indacen-4-yl)carbamoyl)-6-(methylamino)-6,7-dihydro-5H-pyrazolo[5,1-b][1,3]oxazine-3-sulfonimidamide], the 50% inhibitory concentration (IC50) under setting [1] fell in the range of 40 to 200 nM.
`CN[C@H]1COc2c(S(N)(=O)=NC(=O)Nc3c4c(cc5c3CCC5)CCC4)cnn2C1` (single isomer, unassigned) [Example 698, (S) or (R)-(6R)-N′-((1,2,3,5,6,7-hexahydro-s-indacen-4-yl)carbamoyl)-6-(methylamino)-6,7-dihydro-5H-pyrazolo[5,1-b][1,3]oxazine-3-sulfonimidamide]: under setting [1], the half-maximal inhibitory concentration (IC50) was 1000 to 5000 nM.
Consider `N=S(=O)(NC(=O)Nc1c2c(cc3c1CCC3)CCC2)c1nn(C(F)F)cc1F` (single isomer, unassigned) [Example 710], for which the IC50 under setting [1] is 40 to 200 nM.
Regarding `N=S(=O)(NC(=O)Nc1c2c(cc3c1CCC3)CCC2)c1nn(C(F)F)cc1F` (single isomer, unassigned) [Example 711], the half-inhibitory concentration (IC50) under setting [1] fell in the range of 1000 to 5000 nM.
For the compound `NS(=O)(=NC(=O)Nc1c2c(cc3c1CC3)CCC2)c1cc2c(s1)CCNC2` (single isomer, unassigned) [Example 716], the IC50 under setting [2] lay in the range of 8 to 40 nM.
Regarding `NS(=O)(=NC(=O)Nc1c2c(cc3c1CC3)CCC2)c1cc2c(s1)CCNC2` (single isomer, unassigned) [Example 717], the half-inhibitory concentration (IC50) under setting [2] lay in the range of 200 to 1000 nM.
The same measure, in the same setting: with `CNC(c1ccc(S(N)(=O)=NC(=O)Nc2c3c(cc4c2CC4)CCC3)s1)C1CC1` (single isomer, unassigned) [Example 720, 5-((S) or (R)-cyclopropyl(methylamino)methyl)-N′-((2,4,5,6-tetrahydro-1H-cyclobuta[f]inden-3-yl)carbamoyl)thiophene-2-sulfonimidamide] the figure was 8 to 40 nM.
`CNC(c1ccc(S(N)(=O)=NC(=O)Nc2c3c(cc4c2CC4)CCC3)s1)C1CC1` (single isomer, unassigned) [Example 721, 5-((R) or (S)-cyclopropyl(methylamino)methyl)-N′-((2,4,5,6-tetrahydro-1H-cyclobuta[f]inden-3-yl)carbamoyl)thiophene-2-sulfonimidamide]: under setting [3], the concentration for half-maximal inhibition (IC50) lay in the range of 8 to 40 nM.
`NS(=O)(=NC(=O)Nc1c2c(cc3c1CC3)CCC2)c1cc2c(s1)CCNC2C(F)F` (single isomer, unassigned) [Example 782, (S) or (R) -4-(difluoromethyl)-N′-((2,4,5,6-tetrahydro-1H-cyclobuta[f]inden-3-yl)carbamoyl)-4,5,6,7-tetrahydrothieno[3,2-c]pyridine-2-sulfonimidamide]: the half-maximal inhibitory concentration (IC50) under setting [3] fell in the range of 200 to 1000 nM.
In the case of `NS(=O)(=NC(=O)Nc1c2c(cc3c1CC3)CCC2)c1cc2c(s1)CCNC2C(F)F` (single isomer, unassigned) [Example 783, (R) or (S) -4-(difluoromethyl)-N′-((2,4,5,6-tetrahydro-1H-cyclobuta[f]inden-3-yl)carbamoyl)-4,5,6,7-tetrahydrothieno[3,2-c]pyridine-2-sulfonimidamide], the IC50 under setting [2] is 200 to 1000 nM.
With `NS(=O)(=NC(=O)Nc1c2c(cc3c1CCC3)CCC2)c1cc2c(s1)CCNC2` (single isomer, unassigned) [Example 787, (R) or (S)-N′-((1,2,3,5,6,7-hexahydro-s-indacen-4-yl)carbamoyl)-4,5,6,7-tetrahydrothieno[3,2-c]pyridine-2-sulfonimidamide], under setting [2], the IC50 lay in the range of 40 to 200 nM.
Regarding `NS(=O)(=NC(=O)Nc1c2c(cc3c1CCC3)CCC2)c1cc2c(s1)CCNC2` (single isomer, unassigned) [Example 788, (S) or (R)-N′-((1,2,3,5,6,7-hexahydro-5-indacen-4-yl)carbamoyl)-4,5,6,7-tetrahydrothieno[3,2-c]pyridine-2-sulfonimidamide], the half-inhibitory concentration (IC50) under setting [2] lay in the range of 200 to 1000 nM.
Take `NS(=O)(=NC(=O)Nc1c2c(cc3c1CCC3)CCC2)c1cc2c(s1)CCOC2` (single isomer, unassigned) [Example 789, (R) or (S)-N′-((1,2,3,5,6,7-hexahydro-5-indacen-4-yl)carbamoyl)-6,7-dihydro-4H-thieno[3,2-c]pyran-2-sulfonimidamide]: the IC50 under setting [2] lay in the range of 200 to 1000 nM.
Consider `NS(=O)(=NC(=O)Nc1c2c(cc3c1CCC3)CCC2)c1cc2c(s1)CCOC2` (single isomer, unassigned) [Example 790, (S) or (R)-N′-((1,2,3,5,6,7-hexahydro-s-indacen-4-yl)carbamoyl)-6,7-dihydro-4H-thieno[3,2-c]pyran-2-sulfonimidamide], for which, under setting [2], the 50% inhibitory concentration (IC50) lay in the range of 5000 to 30000 nM.
Take `CNS(=O)(=O)c1cccc(S(N)(=O)=NC(=O)Nc2c3c(cc4c2CCC4)CCC3)c1` (single isomer, unassigned) [Example 791, (R) or (S)-3-(N′-((1,2,3,5,6,7-hexahydro-5-indacen-4-yl)carbamoyl)sulfamidimidoyl)-N-methylbenzenesulfonamide]: under setting [2], the IC50 lay within 200 to 1000 nM.
Consider `CNS(=O)(=O)c1cccc(S(N)(=O)=NC(=O)Nc2c3c(cc4c2CCC4)CCC3)c1` (single isomer, unassigned) [Example 792, (S) or (R)-3-(N′-((1,2,3,5,6,7-hexahydro-s-indacen-4-yl)carbamoyl)sulfamidimidoyl)-N-methylbenzenesulfonamide], for which the IC50 under setting [2] lay in the range of 1000 to 5000 nM.
For `COCCOC[C@@](C)(O)c1ncc(S(N)(=O)=NC(=O)Nc2c3c(cc4c2CCC4)CCC3)s1` (single isomer, unassigned) [Example 793, (S) or (R)-N′-((1,2,3,5,6,7-hexahydro-s-indacen-4-yl)carbamoyl)-2-((R)-2-hydroxy-1-(2-methoxyethoxy)propan-2-yl)thiazole-5-sulfonimidamide], the half-maximal inhibitory concentration (IC50) under setting [2] fell in the range of 1000 to 5000 nM.
Turning to `COCCOC[C@@](C)(O)c1ncc(S(N)(=O)=NC(=O)Nc2c3c(cc4c2CCC4)CCC3)s1` (single isomer, unassigned) [Example 794, (R) or (S)-N′-((1,2,3,5,6,7-hexahydro-s-indacen-4-yl)carbamoyl)-2-((R)-2-hydroxy-1-(2-methoxyethoxy)propan-2-yl)thiazole-5-sulfonimidamide], the half-maximal inhibitory concentration (IC50) under setting [2] lay within 8 to 40 nM.
Consider `NS(=O)(=NC(=O)Nc1c2c(cc3c1CCC3)CCC2)c1sc(CNC2CCC2)cc1F` (single isomer, unassigned) [Example 795, (R) or (S)-5-((cyclobutylamino)methyl)-3-fluoro-N′-((1,2,3,5,6,7-hexahydro-s-indacen-4-yl)carbamoyl)thiophene-2-sulfonimidamide], for which the IC50 under setting [2] lay in the range of 200 to 1000 nM.
